Results reported in patent US20170326146A1, “METHODS OF TREATING HEPATITIS B INFECTIONS AND RELATED DOSAGE REGIMES” (ContraVir Pharmaceuticals, Inc., priority 2016, published 2017).
Where “and” joins values, the source holds several entries; their conditions need not be identical. Equal entries are not always repeated.

Key:
[1] = Phase I clinical trial with healthy adults: safety, blood pressure, ECG; type: in vivo, human; conditions: healthy subjects
Method: Eight healthy subjects were given Compound I orally at a daily dose of 5 mg for administration periods of between 9 and 14 days. […] Additionally, a placebo was administered to four healthy subjects for administration periods of between 9 and 14 days. The subjects were evaluated for changes in baseline blood pressure (FIGS. 1A and 1B: Changes in systolic and diastolic blood pressure, respectively, after administration of 5 mg of Compound I; FIGS. 2A and 2B: Changes in systolic and diastolic blood pressure, respectively, after administration of 10 mg of Compound I; FIGS. 3A and 3B: Changes in systolic and diastolic blood pressure, respectively, after administration of placebo). Furthermore, electrocardiograms (ECGs) were recorded to evaluate the change in baseline of heart rate, RR intervals, PR intervals, QRS duration and QTcF in each subject (FIGS. 4A and 4B: Changes in heart rate and RR interval, respectively, after administration of 5 mg of Compound I; FIGS. 5A and 5B: Changes in heart rate and RR interval, respectively, after administration of 10 mg of Compound I; FIGS. 6A and 6B: Changes in heart rate and RR interval, respectively, after administration of placebo; FIGS. 7A, 7B, and 7C: Changes in PR interval, QRS duration, and QTcF duration, respectively, after administration of 5 mg of Compound I; FIGS. 8A, 8B and 8C: Changes in PR interval, QRS duration, and QTcF duration, respectively, after administration of 10 mg of Compound I; FIGS. 9A, 9B and 9C: Changes in PR interval, QRS duration, and QTcF duration, respectively, after administration of placebo). In the Figures, as well as in Table 2 below, individual subjects are identified by 6-digit numbers. Subjects that were administered 5 mg of Compound I, 10 mg of Compound I, or a placebo, were monitored for between 15 and 18 days, between 9 and 11 days, or between 9 and 18 days after initiation of the study, respectively. […] The baselines are defined as the last variable assessment prior to initiation of the study.

[2] = Pharmacokinetics of Compound I in human plasma: plasma concentrations of Compound I and tenofovir; type: in vivo; set-up: unit not given here; conditions: single oral 5 mg dose of Compound I, individual subjects
Method: The pharmacokinetics of Compound I in human plasma was also evaluated. Plasma concentrations of Compound I and tenofovir (TFV) were measured at various time points up to 24 h after oral administration of a single 5 mg dose of Compound I. The results are summarized in Table 2.

[3] = 5 mg or 10 mg daily, dose groups and placebo not told apart

CCCCCCCCCCCCCCCCOCCCOP(=O)(O)CO[C@H](C)Cn1cnc2c(N)ncnc21 [Compound I, 3-(hexadecyloxy)propyl hydrogen ((R)-1-(6-amino-9H-purin 9-yl)propan-2-yloxy)methylphosphonate]
Adverse events reported [1, 3]: Few, minor adverse events (i.e., mild dizziness, headache or nausea) | ECG abnormalities reported [1, 3]: few ECG abnormalities (i.e., intraventricular conduction defect, frequent ventricular complexes and ectopic supraventricular rhythm) | Premature discontinuation of the study ([1]; 5 mg or 10 mg of Compound I daily or placebo): No subjects needed to discontinue the study prematurely | Safety and tolerability ([1]; oral daily dose of 5 mg for 9-14 days): safe and well-tolerated | Safety and tolerability ([1]; oral daily dose of 10 mg for 9-14 days): safe and well-tolerated | Pharmacokinetic plasma concentration of Compound I ([2]; 0.5 hours post-dose): 0.303 and 0.567 and <LLOQ < (0.150) (4×) and 1.090 and 0.893 | Pharmacokinetic plasma concentration of Compound I ([2]; 1 hour post-dose): 1.310 and 0.592 and 2.980 and 2.080 and <LLOQ < (0.150) (2×) and 1.570 and 0.743 | Pharmacokinetic plasma concentration of Compound I ([2]; 2 hours post-dose): 2.030 and 0.310 and 8.530 and 1.530 and 0.753 and 1.820 and 0.180 and 2.180 | Pharmacokinetic plasma concentration of Compound I ([2]; 2.5 hours post-dose): 0.412 and 1.550 and 1.350 and 5.250 and 1.340 and 1.500 and 0.206 and 1.070 | Pharmacokinetic plasma concentration of Compound I ([2]; 3 hours post-dose): 2.080 and 1.690 and 1.260 and 1.440 and 4.270 and 1.640 and 4.430 and 0.197 | Pharmacokinetic plasma concentration of Compound I ([2]; 4 hours post-dose): 1.180 and 2.460 and 0.712 and 0.508 and 1.500 and 0.520 and 1.540 and <LLOQ < (0.150) | Pharmacokinetic plasma concentration of Compound I ([2]; 6 hours post-dose): 0.448 and 0.891 and 0.179 and <LLOQ < (0.150) (3×) and 0.372 and 0.389 | Pharmacokinetic plasma concentration of Compound I ([2]; 10 hours post-dose): <LLOQ < (0.150) | Pharmacokinetic plasma concentration of Compound I ([2]; 12 hours post-dose): <LLOQ < (0.150) | Pharmacokinetic plasma concentration of Compound I ([2]; 15 hours post-dose): <LLOQ < (0.150) | Pharmacokinetic plasma concentration of Compound I ([2]; 18 hours post-dose): <LLOQ < (0.150) | Pharmacokinetic plasma concentration of Compound I ([2]; 24 hours post-dose): <LLOQ < (0.150) | Pharmacokinetic plasma concentration of Compound I ([2]; Pre-dose): <LLOQ < (0.150)

C[C@H](Cn1cnc2c(N)ncnc21)OCP(=O)(O)O [TFV, tenofovir]
Pharmacokinetic plasma concentration of TFV ([2]; 0.5 hours post-dose): <LLOQ < (0.500) | Pharmacokinetic plasma concentration of TFV ([2]; 1 hour post-dose): <LLOQ < (0.500) | Pharmacokinetic plasma concentration of TFV ([2]; 2 hours post-dose): 0.519 and <LLOQ < (0.500) (4×) and 0.528 and 0.733 | Pharmacokinetic plasma concentration of TFV ([2]; 2.5 hours post-dose): 0.822 and 0.693 and 0.665 and 0.708 and 0.596 and <LLOQ < (0.500) and 0.959 | Pharmacokinetic plasma concentration of TFV ([2]; 3 hours post-dose): 0.891 and <LLOQ < (0.500) (2×) and 0.764 and 0.900 and 0.781 and 0.648 and 0.918 | Pharmacokinetic plasma concentration of TFV ([2]; 4 hours post-dose): 1.140 (2×) and <LLOQ < (0.500) and 0.900 and 0.948 and 0.750 and 0.594 and 0.903 | Pharmacokinetic plasma concentration of TFV ([2]; 6 hours post-dose): 1.370 and 0.560 and 0.908 and 1.110 and 1.080 and 0.711 and 0.609 and 0.804 | Pharmacokinetic plasma concentration of TFV ([2]; 10 hours post-dose): 1.300 and 0.526 and 0.695 and 0.800 and 0.652 and 0.516 and 0.558 and 0.659 | Pharmacokinetic plasma concentration of TFV ([2]; 12 hours post-dose): 1.140 and <LLOQ < (0.500) (4×) and 0.535 and 0.664 and 0.574 | Pharmacokinetic plasma concentration of TFV ([2]; 15 hours post-dose): 1.040 and <LLOQ < (0.500) (6×) and 0.581 | Pharmacokinetic plasma concentration of TFV ([2]; 18 hours post-dose): 0.759 and <LLOQ < (0.500) (7×) | Pharmacokinetic plasma concentration of TFV ([2]; 24 hours post-dose): 0.599 and <LLOQ < (0.500) (7×) | Pharmacokinetic plasma concentration of TFV ([2]; Pre-dose): <LLOQ < (0.500)
